Measurements reported in ChEMBL document CHEMBL3507680, “University of Dundee, Gates Library screen for HepG2 cell viability”.

Assay: Human HepG2 cell viability assay in 384 well format
Type: toxicity, cell-based
Design: dose 125 nL, time 70.5 hour; cytotoxicity at 70.5 h: concentration not given beside the values
Settings: HepG2 cells, read-out: Inhibition

Compound | cytotoxicity at 70.5 h [%]
NCC(c1cccnc1)N1CCOCC1 (stereo not given) | -4.26
O=C(C1=CC2(CCNCC2)c2ccccc21)N1CCCC1 | -14.7
O=C(c1cnccn1)N1CCN2C[C@H](OCc3ccccn3)C[C@H]2C1 | -10.5
O=C(C1CCOCC1)N1CCc2ncnc(-c3ccc(F)cc3)c2CC1 | -11.3
O=C(C1CCC1)N1CCC2(COCc3cnc(N4CCOCC4)nc32)C1 (stereo not given) | 8.28
CN(C)CC(=O)N1Cc2nc(C(=O)NCc3ccncc3)oc2C1 | -14.7
COCCNC(=O)[C@@H]1CC[C@@H]2[C@@H](CCN2Cc2cnn(C)c2)O1 | -18.7
O=C(C1=CCCC1)N1CCO[C@H]2[C@@H](OCC3CC3)CC[C@@H]21 | -17.4
Cc1ccoc1C(=O)N1CC[C@H]2O[C@@H](C)C[C@H]2C1 | -10.2
Cc1noc(C)c1CN1CC[C@H]2OCC[C@@H](C(=O)N3CCCO3)[C@@H]2C1 | -14.6
CC(C)N(C)C(=O)C1=NOC2(CCN(C(=O)c3ccccn3)C2)C1 (stereo not given) | -9.35
CC(=O)N1CCC2(CC1)CC(Oc1ccccc1)CO2 (stereo not given) | -7.56
CC(C)N1CCOCC2(CN(Cc3ccco3)CCO2)C1 (stereo not given) | -8.16
O=C(c1ccsc1)N1CCc2c(COCc3ccncc3)cncc2C1 | -9.93
CN(C)C(=O)CN1CCC2(CC1)CN(S(C)(=O)=O)Cc1ccccc1O2 | -4.65
Cc1csc(C(Cc2cccs2)NCc2cc3c(cc2C)OCO3)n1 (stereo not given) | 17.6
CSCC[C@H]1CN2CCC[C@H]2CN1Cc1coc2ccc(C)cc2c1=O | 1.94
CCn1ccc(C(=O)N2CCCC2c2nnc(-c3scnc3C)o2)n1 (stereo not given) | -6.79
O=C(CCOc1ccccc1F)NC1CCCN(c2ccccn2)C1 (stereo not given) | -5.44
COc1cc(OC)cc(C(=O)N2CCOCC2c2[nH]ncc2C)c1 (stereo not given) | 18
CCn1cc(C(=O)N(C)[C@@H]2CC[C@@H](N3CCCC3)[C@@H]2O)c(C)n1 | -5.26
Cc1n[nH]c(C)c1CCC(=O)N1CCC(O)(CN2CCN(C)CC2)C1 (stereo not given) | -6.92
CN(C1CCCN(c2ccccn2)C1)S(C)(=O)=O (stereo not given) | -3.73

Compound | cytotoxicity at 70.5 h [%]
Cc1ccn(CCC(=O)N2CCCC2c2nnc(-c3scnc3C)o2)n1 (stereo not given) | 11.6
Cc1ncsc1-c1nnc(C2CCCN2C(=O)Cn2cccn2)o1 (stereo not given) | 3.13
Cc1ccc(CN2CCCC(c3cnccn3)C2)s1 (stereo not given) | -1.38
COc1ccc2c(c1)C(=O)NC1(CC2)CCN(Cc2ccncc2)C1 (stereo not given) | -0.942
O=C(Cc1ccccc1)NCc1ncc(-c2ccccc2C(=O)O)cn1 | -4.73
Cc1cc(N2CCCC2(C)c2nc(C)cc(C(=O)N(C)C)n2)ncn1 (stereo not given) | -2.78
Cc1ccc(CN2CCC(c3cnccn3)CC2)s1 | -3.44
CC(C)N1CCCC1c1cc(C(F)(F)F)[nH]n1 (stereo not given) | 0.712
CN(C)c1cc(C2CCCN(Cc3cnn(C)c3)C2)ccn1 (stereo not given) | -0.665
Fc1ccc(-c2cnc(C3CCNCC3)cn2)cc1 | -2.13
Cc1n[nH]c(C)c1CCC(=O)N1CCC(O)(CN2CCOCC2)C1 (stereo not given) | 15.2
CN(C)[C@@H]1CN(C(=O)c2cc3ccc(F)cc3[nH]2)C[C@H]1O | -2.24
Cn1nccc1CCC(=O)NC1CCCN(c2ccccn2)C1 (stereo not given) | -1.31
CC(C)n1nnc(CC(=O)NCC2(c3cccc(F)c3)CCCC2)n1 | 15.1
CC(C)N1CC[C@@](C)(O)[C@H](n2ccc(=O)[nH]c2=O)C1 | -7.14
Cn1c(=O)[nH]c(=O)c2c1nc1n2CC(c2ccc(Br)cc2)O1 (stereo not given) | -3.88
O=C(NCc1ccco1)c1cc[n+]([O-])cc1 | -4.13
O=C(O)C1CN(c2cncc(Cc3ccccc3F)n2)C1 | -6.79
CC(=O)Nc1cc(CCC2CCN(C(=O)c3ccccn3)CC2)ccn1 | -14.2
CC(=O)N(C)Cc1cncc(C2CCCN2C2CCOCC2)n1 (stereo not given) | -9.86
CS(=O)(=O)N1CCCC(Cc2ccnc(Nc3ccccn3)c2)C1 (stereo not given) | -6.97
CS(=O)(=O)N1CCC(Cc2cnc(Br)cn2)C1 (stereo not given) | 45.3
Cc1ccc2[nH]c(C3CCN(CC(N)=O)CC3)nc2c1 | 9.74

Compound | cytotoxicity at 70.5 h [%]
CNC(=O)c1sc2ccccc2c1C1CCN(c2cc(C)nc(C)n2)C1 (stereo not given) | 18.1
Cc1nnc(C2CCN(c3ccccc3)CC2)o1 | -9.47
Oc1cc(C2CCCCN2C2CCCC2)nc(-c2cccnc2)n1 (stereo not given) | -7.77
Cc1cc(C2CCCN(S(=O)(=O)c3cn(C)cn3)C2)ccn1 (stereo not given) | -5.97
CN(C)C(c1ccccn1)[C@H]1CC[C@H](CNC(=O)CC2CCCC2)CC1 (stereo not given in full) | -7.26
O=C(O)c1ccccc1-n1cnc(CN2CCc3ccccc3C2)c1 | 27.7
Cc1ccc2c(CC(=O)N3C[C@@H](O)[C@H](N(C)C)C3)coc2c1 | -5.65
CN(C)Cc1ccccc1Cn1cncc1-c1cnn(C)c1 | -3.97
CC(=O)N1CCC(c2cncc(N3CCCCCC3)n2)CC1 | -17.2
Cn1ccc(CN2CC(Cc3nccc4cc[nH]c34)C2)n1 | -4.79
CS(=O)(=O)N1CCC(c2cncc(Cl)n2)CC1 | 27.2
CC(C)CC(NC(=O)c1ccco1)c1nc2cccnc2n1C (stereo not given) | -1.92
CC[C@@H](Cn1ncc2ccccc2c1=O)NC(=O)c1cnccn1 | -4.08
CC(C(=O)N(Cc1ccccc1)CC(F)(F)F)S(C)(=O)=O (stereo not given) | -5.47
Cc1cnn(-c2ccc(S(N)(=O)=O)cc2F)c1 | 20
O=C(Cc1cccnc1)NC1COc2ccccc2C1=O (stereo not given) | -14.7
COCCN(CCOC)C(=O)c1sc(C)nc1C | -6.51
CC(C)N(C)CC(=O)N1CCCC(n2ccnc2)C1 (stereo not given) | 1.97
CCc1ccccc1CNC(=O)CNCC(F)(F)F | -2.89
Cc1ccc2c(c1C)OCC2NCc1ccc(C#N)cc1 (stereo not given) | 16.8
FC(F)(F)Cn1ccnc1CNCCn1cccn1 | -6.92
CC(SCCNS(=O)(=O)c1cnn(C)c1)c1cccc(F)c1 (stereo not given) | -5.51
c1ccc(-c2nccc(N3CCc4c(ncn4C4CC4)C3)n2)cc1 | -17.8

Compound | cytotoxicity at 70.5 h [%]
COC(=O)CC(NC(=O)c1cccc(N2CCCC2=O)c1)c1cccs1 (stereo not given) | 4.95
Cn1cnnc1S(=O)(=O)Cc1cc(Cl)c2c(c1)OCO2 | 7.74
Cc1csc(CNC(=O)CCCc2cccs2)n1 | -1.29
FC(F)(F)CN1CCC(CNc2nc3ccccc3o2)C1 (stereo not given) | 1.85
CC(C)NC(=O)c1cnc(Sc2nccn2C)c(Cl)c1 | 9.84
Cc1ccccc1CN(C)C(=O)CCc1nc(-c2nnc[nH]2)no1 | 8.55
CC1CCCCN1C(=O)c1cn(-c2ccc(C(F)(F)F)cn2)nn1 (stereo not given) | -6.25
Cc1cc(NC(=O)c2ccc(N3CCOCC3)c(F)c2)[nH]n1 | -1.35
CCC(NC(=O)c1cccc(N2CCCC2=O)c1)c1ccc(OC)cc1 (stereo not given) | -4.2
Cc1cc(C(=O)N(C)S(C)(=O)=O)ccc1F | 11.2
Cc1cc(C(=O)N(C)S(=O)(=O)C(C)C)ccc1F | -4.29
O=C1CCCCN1CSc1nnnn1-c1ccc(Cl)cc1 | -4.94
CCc1ccc2c(c1)C(CCNC(=O)c1sccc1C)C(=O)N2 (stereo not given) | -3.5
CN(CCCc1ccccc1)C(=O)CCc1nc(-c2nnc[nH]2)no1 | -0.426
CC(C#N)CN(C)Cc1ccc(Cl)c2cccnc12 (stereo not given) | -3.13
Cc1n[nH]cc1CNC(=O)CCCc1cccs1 | -3.35
Cc1ccc(S(=O)(=O)NC(=O)CCc2ccco2)cc1N(C)C | 20.1
Cc1cc(CN2CCN(Cc3cc(C#N)ccc3F)CC2)no1 | 0.144
Cc1cc(CN2CCN(Cc3ccccc3F)CC2)no1 | 6.67
O=C(CSc1nnc(N2CCOCC2)s1)NC(=O)Nc1ccccc1 | -4.91
CCn1ncc(CN2CCCC(n3c(=O)oc4ccccc43)C2)c1C (stereo not given) | -3.68
Cn1cc([C@@H]2CN(S(C)(=O)=O)C[C@H]2N)c2ccncc21 | 19
CN1CCCCC1c1cncc(Cl)n1 (stereo not given) | -0.934

Compound | cytotoxicity at 70.5 h [%]
CC1CCN(c2cncc(CCC3CCCN3)n2)CC1 (stereo not given) | -8.58
Cc1cc(N2CCN(Cc3ccnn3C)CC2)cc(C2CCCN2)n1 (stereo not given) | 13
CCN(CC)C(=O)CN1CCc2c(nc(C3CCNCC3)nc2NC)C1 | -8.61
COc1ccc(-c2cc(C3CCNCC3)nc(C)n2)cc1 | -6.57
CCN1CCCc2cc(-c3cncn3C(C)CN3CCOCC3)ccc21 (stereo not given) | -4.04
CCC(CN1CCOCC1)n1cncc1-c1ccc2c(c1)CCCN2C (stereo not given) | -6.78
Cc1ccc(-c2cc(C3CCNCC3)nc(C)n2)cc1 | -6.7
Cc1nccn1CCC1CCNCC1 | -4.48
CCN(C)c1ncnc2c1CCN(C(=O)N1CCCC1)CC2 | -12.4
CC(C)CN1CCC2(C=C(C(=O)N3CCCC3)c3ccccc32)CC1 | -15.8
O=C([C@@H]1CC[C@@H]2[C@@H](CCN2Cc2cccc(F)c2)O1)N1CCCCO1 | 5.95
CCS(=O)(=O)N1CCOC2(CCCN(c3ccc(C)nn3)C2)C1 (stereo not given) | -11.8
CN1CCN(C(=O)NC2CC2)Cc2cccnc21 | 0.459
Cc1noc(C)c1CN1CC[C@H]2OCC[C@@H](C(=O)NCC3CC3)[C@@H]2C1 | -3.12
CC(C)n1cnc2c1C(C(=O)NCCC#N)N(Cc1ccccc1)CC2 (stereo not given) | -16.7
CCOCC1CN(C(=O)c2ccncc2)Cc2nn(C)cc21 (stereo not given) | -18
CN(C)c1ncc2c(n1)C1(CCN(CC3CC3)C1)COC2 (stereo not given) | -8.15
Cc1ccc(CN2CC3(CCN(C(=O)c4cscn4)C3)C2)s1 | -7.12
CS(=O)(=O)N1CCOCC2(CN(Cc3ccco3)CCO2)C1 (stereo not given) | -3.82
c1cnc(NCc2noc3c2CN(CCN2CCCC2)CC3)nc1 | -7.61
CN(C)c1ncc(CN2CCC(O)(c3ccccc3F)CC2)cn1 | -2.07
CC(C)N1CCCC1c1cc(CO)[nH]n1 (stereo not given) | -4.38
Cc1cccc(Nc2cc(C)nc(C3CCN(C(C)C)C3)n2)n1 (stereo not given) | 15.7
